Results from patent US8445468B2, “(20S,22E)-2-methylene-19-nor-22-ene-1α,25-dihydroxyvitamin D3” (Wisconsin Alumni Research Foundation, priority 2009, dated 2013).
Where two headings read alike, the source gives them in different places.

Assays:
[1] = test system: vitamin D-deficient rats; experiment: Bone calcium mobilization (serum calcium); type: in vivo, rat; settings: FIG. 4; for serum calcium (bone calcium mobilization): 260 pmol/day ip for 4 consecutive days, rats on low calcium diet (0.02%); for bone calcium mobilization activity (in words): vitamin D-deficient rats, low calcium diet
Procedure: (§1) Male, weanling Sprague-Dawley rats were placed on Diet 11 (0.47% Ca) diet +AEK oil for one week followed by Diet 11 (0.02% Ca)+AEK oil for 3 weeks. The rats were then switched to a diet containing 0.47% Ca for one week followed by two weeks on a diet containing 0.02% Ca. Dose administration began during the last week on 0.02% calcium diet. Four consecutive ip doses were given approximately 24 hours apart. Twenty-four hours after the last dose, blood was collected from the severed neck and the concentration of serum calcium determined as a measure of bone calcium mobilization. The first 10 cm of the intestine was also collected for intestinal calcium transport analysis using the everted gut sac method.

[2] = test system: HL-60 cells; experiment: HL-60 differentiation (nitro blue tetrazolium reduction); type: cell-based, human; settings: FIG. 2; for EC50: differentiation of HL-60 cells into monocytes, read-out: EC50, HL-60 cell differentiation
Procedure: The study drugs were dissolved in ethanol and the concentrations determined using UV spectrophotometry. Serial dilutions were prepared so that a range of drug concentrations could be tested without changing the final concentration of ethanol (≦0.2%) present in the cell cultures.
Human promyelocytic leukemia (HL60) cells were grown in RPMI-1640 medium containing 10% fetal bovine serum. The cells were incubated at 37° C. in the presence of 5% CO2.
HL60 cells were plated at 1.2×10^5 cells/ml. Eighteen hours after plating, cells in duplicate were treated with drug. Four days later, the cells were harvested and a nitro blue tetrazolium reduction assay was performed (Collins et al., 1979; J. Exp. Med. 149:969-974). The percentage of differentiated cells was determined by counting a total of 200 cells and recording the number that contained intracellular black-blue formazan deposits. Verification of differentiation to monocytic cells was determined by measuring phagocytic activity (data not shown).

[3] = test system: vitamin D-deficient rats; experiment: Intestinal calcium transport (everted gut sac method); type: in vivo, rat; settings: FIG. 5
Procedure: as §1

[4] = molecular target: T1, full-length recombinant rat vitamin D receptor (Rattus norvegicus, UniProt P13053); experiment: Vitamin D receptor binding, competition with [3H]-1,25(OH)2D3; settings: FIG. 1
T1 construct: Full-length recombinant rat receptor was expressed in E. coli BL21 (DE3) Codon Plus RIL cells; histidine tag (C); made in house; host or cells: E. coli BL21 (DE3) Codon Plus RIL
T1 sequence (P13053 1-423): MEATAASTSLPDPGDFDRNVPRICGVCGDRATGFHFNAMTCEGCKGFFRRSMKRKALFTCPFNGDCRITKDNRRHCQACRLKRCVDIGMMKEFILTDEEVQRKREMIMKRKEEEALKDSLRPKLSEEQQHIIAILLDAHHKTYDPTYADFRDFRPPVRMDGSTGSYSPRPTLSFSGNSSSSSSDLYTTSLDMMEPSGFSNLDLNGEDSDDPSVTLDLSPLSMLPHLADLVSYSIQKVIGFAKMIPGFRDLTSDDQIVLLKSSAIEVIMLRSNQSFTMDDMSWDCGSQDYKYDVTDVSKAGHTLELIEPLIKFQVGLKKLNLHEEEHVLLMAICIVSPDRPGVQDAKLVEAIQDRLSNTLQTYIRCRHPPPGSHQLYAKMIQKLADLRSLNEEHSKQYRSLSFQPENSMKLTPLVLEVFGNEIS
Procedure: Full-length recombinant rat receptor was expressed in E. coli BL21 (DE3) Codon Plus RIL cells and purified to homogeneity using two different column chromatography systems. The first system was a nickel affinity resin that utilizes the C-terminal histidine tag on this protein. The protein that was eluted from this resin was further purified using ion exchange chromatography (S-Sepharose Fast Flow). Aliquots of the purified protein were quick frozen in liquid nitrogen and stored at −80° C. until use. For use in binding assays, the protein was diluted in TEDK50 (50 mM Tris, 1.5 mM EDTA, pH7.4, 5 mM DTT, 150 mM KCl) with 0.1% Chaps detergent. The receptor protein and ligand concentration were optimized such that no more than 20% of the added radiolabeled ligand was bound to the receptor.
Radiolabeled and unlabeled ligands were added to 100 mcl of the diluted protein at a final ethanol concentration of ≦10%, mixed and incubated overnight on ice to reach binding equilibrium. The following day, 100 mcl of hydroxylapatite slurry (50%) was added to each tube and mixed at 10-minute intervals for 30 minutes. […] Total binding was determined from the tubes containing only radiolabeled ligand.

[5] = test system: 24-hydroxylase (24Ohase) gene promoter; experiment: In vitro transcription assay, luciferase reporter in ROS 17/2.8 (bone) cells; type: cell-based; settings: FIG. 3; for EC50: ROS 17/2.8 cells, 16 h after dosing, read-out: EC50, transcriptional activity in bone cells (24-hydroxylase gene)
Procedure: Transcription activity was measured in ROS 17/2.8 (bone) cells that were stably transfected with a 24-hydroxylase (24Ohase) gene promoter upstream of a luciferase reporter gene (Arbour et al., 1998). Cells were given a range of doses. Sixteen hours after dosing the cells were harvested and luciferase activities were measured using a luminometer.
RLU=relative luciferase units.

SMILES | serum calcium (bone calcium mobilization) [1] [mg/dL] | bone calcium mobilization activity (in words) [1] | EC50 ([2]; Homo sapiens) [nM] | potency on HL-60 cell differentiation relative to 1,25(OH)2D3 ([2]; fold more potent than 1,25(OH)2D3) | intestinal calcium transport activity compared to 1,25(OH)2D3 ([3]; 32 pmol/day for 4 consecutive days) | intestinal calcium transport, dose dependence (in words) ([3]; vitamin D-deficient rats) | affinity to the nuclear vitamin D receptor compared to 1,25-(OH)2D3 (in words) ([4]; full length recombinant rat VDR) | Ki ([4]; full-length recombinant rat vitamin D receptor, read-out: Ki, competition with [3H]-1,25(OH)2D3 for binding to VDR) [nM] | EC50 [5] [nM] | potency in increasing transcription of the 24-hydroxylase gene relative to 1,25(OH)2D3 ([5]; bone cells, fold more potent than 1,25(OH)2D3) | EC50 [2] [nM]
C=C1[C@H](O)CC(=C/C=C2\CCC[C@]3(C)[C@@H]([C@@H](C)/C=C/CC(C)(C)O)CC[C@@H]23)C[C@H]1O [Compound N-23, (20S,22E)-2-Methylene-19-nor-22-ene-1α,25-dihydroxyvitamin D3] | 6.8 | slightly more bone calcium mobilization activity | 0.1 | about 10 times | less activity | dose dependent manner | same affinity | 0.06 | 0.02 | about 10 times | –
C=C1/C(=C\C=C2/CCC[C@]3(C)[C@@H]([C@H](C)CCCC(C)(C)O)CC[C@@H]23)C[C@@H](O)C[C@@H]1O [1,25(OH)2D3, 1α,25-dihydroxyvitamin D3] | 6.1 | increased serum calcium levels at all dosages | – | – | – | – | – | – | 0.2 | – | 2
